For experiment [1], the system named is lipoxygenase (LOX). Description: Lipoxygenase activity, bean cotyledon membrane and cytosol. Format: biochemical. The text has this: (§1) This Example illustrates the inhibition of lipoxygenase (LOX) activity by the glucose ester of ferulic acid.
Experiment [2] in a line: Radical scavenging in a chemical system. To be noted: tests with a chemical system.
For experiment [3], the system named is lipoxygenase (LOX). Description: Lipoxygenase activity, carnation microsomal membranes. The format is biochemical.
From the text: as §1

For experiment [4], the system named is Microsomes from senescing carnation flowers. Description: Inhibition of ethylene formation in vitro in carnation microsomes. Format: biochemical. Here is the method: This Example illustrates the inhibition of ethylene formation in vitro by the glucose ester of ferulic acid.
Microsomes from senescing carnation flowers were treated with varying quantities of the glucose ester of ferulic acid, isolated as described in Example 1, and the production of ethylene was determined as a percentage of the control production of ethylene in the absence of added ferulic acid ester

The test system of experiment [5] is petals of carnation flowers. Description: In vivo prevention of ethylene formation in carnation petals after incubation with ACC. The conditions noted are these: 1 mM taken up transpirationally. Here is the method:
This Example illustrates the use of the glucose ester of ferulic acid for in vivo prevention of ethylene formation in carnations.
The glucose ester of ferulic acid (1 mM), isolated as described in Example 1, was taken up transpirationally into petals of carnation flowers. Ethylene production was determined as a percentage of the ethylene produced by untreated control petals at various times after incubation with ACC.

For `COc1cc(/C=C/C(=O)O[C@@H]2O[C@H](CO)[C@@H](O)[C@H](O)[C@H]2O)ccc1O` [glucose ester of ferulic acid], the “effect against LOX from other plant systems including bean cotyledons (in words)” value in experiment [1] was “effective”. Further, the “Lipoxygenase activity (% of control)” value in experiment [1] (10 μg cytosol protein of 9 d bean cotyledon, 50 μM) is reported as 48.4 % of control; in experiment [1] (10 μg cytosol protein of 9 d bean cotyledon, 100 μM), 35.9 % of control; in experiment [1] (60 μg membrane protein of 9 d bean cotyledon, 50 μM), 46.3 % of control; in experiment [1] (60 μg membrane protein of 9 d bean cotyledon, 100 μM), 37.8 % of control; in experiment [3] (100 μg membrane protein from Stage IV carnation, 40 μM) it was 1.8 % of control. In addition, in experiment [1] (100 μm concentrations, all experiments), the “effect on enzyme activity in membrane and cytosol preparations (in words)” value is given as “caused an inhibition of enzyme activity”. Also, the “radical scavenger activity (in words)” value in experiment [2] is given as “shown promise as a full radial scavenger”. Also, in experiment [3] (40 μM solution), the “inhibition of lipoxygenase activity derived from carnation (in words)” value is “almost complete inhibition”. Further, the “Ethylene Production” value is 0.518 ± 0.019 n1.100 μg^-1 protein h^-1 in experiment [4] (Control + 10 μM of Additive), 0.014 ± 0.005 n1.100 μg^-1 protein h^-1 in experiment [4] (Control + 50 μM of Additive) and 0 n1.100 μg^-1 protein h^-1 in experiment [4] (Control + 100 μM of Additive). Moreover, the “Ethylene Production % Control” value in experiment [4] (Control + 10 μM of Additive) was determined as 53.9%; in experiment [4] (Control + 50 μM of Additive), 2.0%; in experiment [4] (Control + 100 μM of Additive), 0%. Moreover, the “ethylene formation (in words)” value in experiment [4] (concentration of 100 μM) was “zero”. For the same compound, the “% Inhibition of ethylene production” value in experiment [5] (12 hrs after treatment) is on record as 100%; in experiment [5] (16 hrs after treatment) it was 97.3%; in experiment [5] (21 hrs after treatment), 90.4%; in experiment [5] (26 hrs after treatment) it was 81.7%.

The record behind these values is patent US5087417A, “Control of senescence in fruits, vegetables and flowers” (University of Waterloo, priority 1986, dated 1992).
